In PubChem BioAssay AID328 (DTP/NCI, 2004):
Values joined by “and” are separate entries in the source; they are usually repeats but may differ in a detail not shown here. Equal values may be shown once. Toxic doses and inconclusive results are not listed.

System: BDF1 mice, P388 leukemia ip, median survival T/C
Assay: NCI In Vivo Anticancer Drug Screen. Data for tumor model P388 Leukemia (intraperitoneal) in B6D2F1 (BDF1) mice
Conditions: endpoint: median survival time, higher = longer survival
How it was run: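 Transplantable tumour in mice; compound vs vehicle dosing; survival scored; ratio of treated to control reported.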

[1] = dose: 200.0 mg/kg/injection, schedule: Q01DX009 (ip), vehicle: Klucel (hydroxypropylcellulose) (HPC)
[2] = dose: 50.0 mg/kg/injection, schedule: Q01DX009 (ip), vehicle: saline with Tween-80
[3] = dose: 25.0 mg/kg/injection, schedule: Q01DX009 (ip), vehicle: saline
[4] = dose: 50.0 mg/kg/injection, schedule: Q01DX009 (ip), vehicle: saline
[5] = dose: 100.0 mg/kg/injection, schedule: Q01DX009 (ip), vehicle: Klucel (hydroxypropylcellulose) (HPC)
[6] = dose: 100.0 mg/kg/injection, schedule: Q01DX009 (ip), vehicle: saline
[7] = dose: 100.0 mg/kg/injection, schedule: Q04DX003 (ip), vehicle: Klucel (hydroxypropylcellulose) (HPC)
[8] = dose: 200.0 mg/kg/injection, schedule: Q04DX003 (ip), vehicle: Klucel (hydroxypropylcellulose) (HPC)
[9] = dose: 400.0 mg/kg/injection, schedule: Q04DX003 (ip), vehicle: Klucel (hydroxypropylcellulose) (HPC)
[10] = dose: 25.0 mg/kg/injection, schedule: Q01DX009 (ip), vehicle: water
[11] = dose: 50.0 mg/kg/injection, schedule: Q01DX009 (ip), vehicle: water
[12] = dose: 100.0 mg/kg/injection, schedule: Q01DX009 (ip), vehicle: water
[13] = dose: 200.0 mg/kg/injection, schedule: Q01DX009 (ip), vehicle: water
[14] = dose: 100.0 mg/kg/injection, schedule: Q01DX009 (ip), vehicle: saline with Tween-80
[15] = dose: 100.0 mg/kg/injection, schedule: Q04DX003 (ip), vehicle: saline with Tween-80
[16] = dose: 200.0 mg/kg/injection, schedule: Q01DX009 (ip), vehicle: saline with Tween-80
[17] = dose: 200.0 mg/kg/injection, schedule: Q04DX003 (ip), vehicle: saline with Tween-80
[18] = dose: 400.0 mg/kg/injection, schedule: Q04DX003 (ip), vehicle: saline with Tween-80

CC(=O)C(=O)NC1/C=C(C)\C=C/C(O)C/C=C(C)\C=C/C(O)CC2OC(=O)C1(C)C(=O)C2C (stereo not given)
T/C (dose: 50.0 mg/kg/injection, schedule: Q01DX009 (ip), vehicle: Klucel (hydroxypropylcellulose) (HPC)): 109 % of control and 122 % of control | T/C [1]: 153 % of control and 163 % of control | T/C (dose: 400.0 mg/kg/injection, schedule: Q01DX009 (ip), vehicle: Klucel (hydroxypropylcellulose) (HPC)): 171 % of control

Cn1c(C(C)(C)O)cnc1[N+](=O)[O-]
T/C (dose: 12.5 mg/kg/injection, schedule: Q01DX009 (ip), vehicle: saline with Tween-80): 105 % of control | T/C (dose: 25.0 mg/kg/injection, schedule: Q01DX009 (ip), vehicle: saline with Tween-80): 105 % of control | T/C [2]: 110 % of control

Cc1nnc(NC(=O)CCl)s1
T/C [3]: 95 % of control and 100 % of control and 113 % of control | T/C (dose: 35.0 mg/kg/injection, schedule: Q01DX009 (ip), vehicle: saline): 113 % of control | T/C [4]: 100 % of control | T/C [5]: 106 % of control | T/C [6]: 100 % of control and 105 % of control | T/C [1]: 111 % of control

CN(C)/N=N/c1nc(Cc2ccccc2)[nH]c1C(N)=O
T/C (dose: 177.0 mg/kg/injection, schedule: Q01DX009 (ip), vehicle: saline with Tween-80): 100 % of control | T/C (dose: 266.0 mg/kg/injection, schedule: Q01DX009 (ip), vehicle: saline with Tween-80): 154 % of control | T/C (dose: 400.0 mg/kg/injection, schedule: Q01DX009 (ip), vehicle: saline with Tween-80): 150 % of control | T/C (dose: 600.0 mg/kg/injection, schedule: Q01DX009 (ip), vehicle: saline with Tween-80): 195 % of control

C#C[C@]1(O)CC[C@H]2[C@@H]3CCc4cc(O)ccc4[C@H]3CC[C@@]21C
T/C [5]: 95 % of control | T/C [7]: 104 % of control | T/C [1]: 87 % of control | T/C [8]: 104 % of control | T/C [9]: 95 % of control

CC(C)(O)c1ccccc1[S+]1OC(C)(C)c2ccccc21 (stereo not given)
T/C (dose: 100.0 mg/kg/injection, schedule: Q01DX001 (ip), vehicle: saline with Tween-80): 98 % of control | T/C (dose: 100.0 mg/kg/injection, schedule: Q01DX001 (ip), vehicle: saline): 100 % of control | T/C (dose: 200.0 mg/kg/injection, schedule: Q01DX001 (ip), vehicle: saline with Tween-80): 103 % of control | T/C (dose: 200.0 mg/kg/injection, schedule: Q01DX001 (ip), vehicle: saline): 102 % of control | T/C (dose: 400.0 mg/kg/injection, schedule: Q01DX001 (ip), vehicle: saline with Tween-80): 118 % of control | T/C (dose: 400.0 mg/kg/injection, schedule: Q01DX001 (ip), vehicle: saline): 117 % of control

C=C(C)C(=O)OCC1CO1 (stereo not given)
T/C [10]: 112 % of control | T/C [11]: 96 % of control | T/C (dose: 50.0 mg/kg/injection, schedule: Q01DX010 (ip), vehicle: saline): 100 % of control | T/C [12]: 99 % of control | T/C (dose: 100.0 mg/kg/injection, schedule: Q01DX010 (ip), vehicle: saline): 100 % of control | T/C [13]: 122 % of control | T/C (dose: 200.0 mg/kg/injection, schedule: Q01DX010 (ip), vehicle: saline): 104 % of control

COc1ccc(C(=O)C(C)C=O)c(OCc2ccccc2)c1OC (stereo not given)
T/C [14]: 95 % of control | T/C [15]: 104 % of control | T/C [16]: 113 % of control | T/C [17]: 113 % of control | T/C [18]: 90 % of control

O=C1CN(CCl)C(=O)CN1CCl
T/C (dose: 12.5 mg/kg/injection, schedule: Q04DX003 (ip), vehicle: water): 100 % of control and 107 % of control | T/C [10]: 94 % of control | T/C (dose: 25.0 mg/kg/injection, schedule: Q04DX003 (ip), vehicle: water): 92 % of control and 103 % of control | T/C [11]: 92 % of control | T/C (dose: 50.0 mg/kg/injection, schedule: Q04DX003 (ip), vehicle: water): 95 % of control and 107 % of control | T/C [12]: 100 % of control | T/C (dose: 100.0 mg/kg/injection, schedule: Q04DX003 (ip), vehicle: water): 96 % of control | T/C [13]: 94 % of control

Cc1cc(N(C)C)c2ccc3ccccc3c2n1
T/C [2]: 93 % of control | T/C [14]: 95 % of control | T/C [16]: 101 % of control

O=S(=O)(c1ccccc1)N1CCOC1=S
T/C [15]: 114 % of control | T/C [17]: 95 % of control | T/C [18]: 95 % of control

CCN(CC)c1nc(NC2CCCCC2)c2nc(N(CC)CC)nc(NC3CCCCC3)c2n1
T/C (dose: 3.13 mg/kg/injection, schedule: Q01DX009 (ip), vehicle: Klucel (hydroxypropylcellulose) (HPC)): 101 % of control | T/C (dose: 6.25 mg/kg/injection, schedule: Q01DX009 (ip), vehicle: Klucel (hydroxypropylcellulose) (HPC)): 110 % of control | T/C (dose: 12.5 mg/kg/injection, schedule: Q01DX009 (ip), vehicle: Klucel (hydroxypropylcellulose) (HPC)): 99 % of control | T/C (dose: 25.0 mg/kg/injection, schedule: Q01DX009 (ip), vehicle: Klucel (hydroxypropylcellulose) (HPC)): 101 % of control

CCOC(=O)C1OC1(C)c1ccccc1 (stereo not given)
T/C (dose: 75.0 mg/kg/injection, schedule: Q01DX009 (ip), vehicle: Klucel (hydroxypropylcellulose) (HPC)): 95 % of control | T/C [7]: 100 % of control and 103 % of control | T/C (dose: 150.0 mg/kg/injection, schedule: Q01DX009 (ip), vehicle: Klucel (hydroxypropylcellulose) (HPC)): 90 % of control | T/C [8]: 100 % of control and 111 % of control | T/C (dose: 300.0 mg/kg/injection, schedule: Q01DX009 (ip), vehicle: Klucel (hydroxypropylcellulose) (HPC)): 113 % of control | T/C [9]: 92 % of control and 104 % of control

Cc1nnc2ccnn2c1C
T/C (dose: 1.56 mg/kg/injection, schedule: Q01DX009 (ip), vehicle: saline): 108 % of control | T/C (dose: 3.13 mg/kg/injection, schedule: Q01DX009 (ip), vehicle: saline): 102 % of control | T/C (dose: 6.25 mg/kg/injection, schedule: Q01DX009 (ip), vehicle: saline): 108 % of control | T/C (dose: 12.5 mg/kg/injection, schedule: Q01DX009 (ip), vehicle: saline): 100 % of control

[O-]c1on[n+](C2CCCCC2)c1-c1ccccc1
T/C (dose: 50.0 mg/kg/injection, schedule: Q04DX003 (ip), vehicle: Klucel (hydroxypropylcellulose) (HPC)): 105 % of control | T/C (dose: 100.0 mg/kg/injection, schedule: Q01DX001 (ip), vehicle: Klucel (hydroxypropylcellulose) (HPC)): 109 % of control | T/C [14]: 92 % of control | T/C [7]: 100 % of control | T/C (dose: 200.0 mg/kg/injection, schedule: Q01DX001 (ip), vehicle: Klucel (hydroxypropylcellulose) (HPC)): 104 % of control | T/C [16]: 92 % of control | T/C [8]: 100 % of control | T/C (dose: 400.0 mg/kg/injection, schedule: Q01DX001 (ip), vehicle: Klucel (hydroxypropylcellulose) (HPC)): 100 % of control

CC(=O)c1ccc2c(c1)[nH]c1ccccc12
T/C [15]: 100 % of control | T/C [17]: 86 % of control | T/C [18]: 95 % of control

CCNC1(c2ccc(Cl)cc2)CCCCC1=O (stereo not given)
T/C [3]: 100 % of control | T/C [4]: 95 % of control and 100 % of control | T/C (dose: 50.0 mg/kg/injection, schedule: Q04DX003 (ip), vehicle: saline): 100 % of control | T/C [6]: 86 % of control | T/C (dose: 100.0 mg/kg/injection, schedule: Q04DX003 (ip), vehicle: saline): 95 % of control

CC1=NN(c2ccc(S(=O)(=O)O)cc2)C(=O)/C1=C/c1ccc(Cl)cc1
T/C [4]: 92 % of control | T/C [6]: 90 % of control

CC[N+](CC)(CC)CCCCCCCC[N+](CC)(CC)CC
T/C (dose: 0.25 mg/kg/injection, schedule: Q01DX009 (ip), vehicle: water): 115 % of control | T/C (dose: 0.5 mg/kg/injection, schedule: Q01DX009 (ip), vehicle: water): 92 % of control | T/C (dose: 0.5 mg/kg/injection, schedule: Q04DX003 (ip), vehicle: water): 100 % of control | T/C (dose: 0.78 mg/kg/injection, schedule: Q04DX003 (ip), vehicle: water): 112 % of control | T/C (dose: 1.0 mg/kg/injection, schedule: Q01DX009 (ip), vehicle: water): 105 % of control and 106 % of control | T/C (dose: 1.0 mg/kg/injection, schedule: Q04DX003 (ip), vehicle: water): 88 % of control | T/C (dose: 1.56 mg/kg/injection, schedule: Q04DX003 (ip), vehicle: water): 112 % of control | T/C (dose: 2.0 mg/kg/injection, schedule: Q01DX009 (ip), vehicle: water): 106 % of control | T/C (dose: 3.12 mg/kg/injection, schedule: Q04DX003 (ip), vehicle: water): 112 % of control

O=S(=O)(CCl)OCCCCOS(=O)(=O)CCl
T/C (dose: 66.0 mg/kg/injection, schedule: Q01DX009 (ip), vehicle: saline): 104 % of control
